Patent EP1161424B1, “NEW DIAZOLE DERIVATIVES AS SEROTONERGIC AGENTS” (Wyeth, priority 1999, dated 2000)

Columns and labels:
[1] = target: T1, human 5HT1A receptor (Homo sapiens, UniProt P08908); experiment: 5-HT1A receptor binding assay ([3H] 8-OH-DPAT displacement); details: displacement of [3H] 8-OH-DPAT (1.5 nM) in CHO cells stably transfected with the human 5HT1A receptor
T1 construct: expressed in transfected cells; host or cells: CHO cells, stably transfected
T1 sequence (P08908 1-422): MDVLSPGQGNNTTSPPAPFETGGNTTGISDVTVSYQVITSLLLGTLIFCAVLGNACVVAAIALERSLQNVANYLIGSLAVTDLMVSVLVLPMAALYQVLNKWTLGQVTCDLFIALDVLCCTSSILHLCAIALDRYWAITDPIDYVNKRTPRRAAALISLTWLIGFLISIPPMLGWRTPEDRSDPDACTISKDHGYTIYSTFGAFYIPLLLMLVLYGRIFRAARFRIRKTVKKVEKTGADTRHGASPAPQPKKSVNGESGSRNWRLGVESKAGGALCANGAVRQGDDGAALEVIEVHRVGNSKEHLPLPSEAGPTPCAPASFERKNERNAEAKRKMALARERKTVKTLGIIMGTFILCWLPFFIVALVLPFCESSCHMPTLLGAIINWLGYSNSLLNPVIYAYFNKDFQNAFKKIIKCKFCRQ
Procedure: 5-HT1A Receptor Binding Assay
High affinity for the serotonin 5-HT1A receptor was established by testing the claimed compound's ability to displace [^3H] 8-OH-DPAT binding in CHO cells stably transfected with the human 5HT1A receptor. Stably transfected CHO cells are grown in DMEM containing 10% heat inactivated FBS and non-essential amino acids. Cells are scraped off the plate, transferred to centrifuge tubes, and washed twice by centrifugation (2000 rpm for 10 min., 4°C) in buffer (50 mM Tris pH 7.5). The resulting pellets are aliquoted and placed at -80°C. On the day of assay, the cells are thawed on ice and resuspended in buffer. The binding assay is performed in a 96 well microtiter plate in a total volume of […]. Non-specific binding is determined in the presence of […] 5-HT, final ligand concentration is 1.5 nM. Following a 30 minute incubation at room temperature, the reaction is terminated by the addition of ice cold buffer and rapid filtration through a GF/B filter presoaked for 30 minutes in 0.5% PEI. Compounds are initially tested in a single point assay to determine percent inhibition at […], and Ki values are determined for the active compounds.

[2] = target: T1, human 5HT1A receptor; experiment: 5-HT1A receptor intrinsic activity assay (cAMP, RIA); assay type: cell-based; details: for cAMP Emax: agonist activity: reversal of forskolin-stimulated cAMP in CHO cells with human 5-HT1A receptor, % printed only; for IC50: antagonist, reversal of agonist induced activity, compounds with Emax = 0 %, preincubated 20 minutes before agonist and forskolin
Procedure: 5-HT1A Receptor Intrinsic Activity Assay
The intrinsic activity of compounds of the present invention was established by testing the claimed compounds ability to reverse the stimulation of cyclic adenosinemonophosphate (cAMP) in CHO cells stably transfected with the human 5-HT1A receptor. Stably transfected CHO cells were grown in DMEM containing 10% heat inactivated FBS and non-essential amino acids. The cells are plated at a density of […] per well in a 24 well plate and incubated for 2 days in a CO2 incubator. On the second day, the media is replaced with 0.5 mL treatment buffer (DMEM + 25 mM HEPES, 5 mM theophylline, […] pargyline) and incubated for 10 minutes at 37°C. Wells are treated with forskolin ([…]) followed immediately by the test compound ([…] for initial screen) and incubated for an additional 10 minutes at 37°C. The reaction is terminated by removal of the media and addition of 0.5 mL ice cold assay buffer (supplied in the RIA kit). Plates are stored at -20°C prior to assessment of cAMP formation by RIA. EC50 values are determined for the active test compounds. Compounds shown to have no agonist activities (Emax = 0 %) are further analyzed for their ability to reverse agonist induced activity. In separate experiments, 6 concentrations of antagonist are preincubated for 20 minutes prior to the addition of agonist and forskolin. Cells are harvested as described above. The cAMP kit is supplied by Amersham and the RIA is performed as per kit instructions, and calculations of IC50 performed by GraphPad Prism.

Compound | IC50 [2] | Ki [1] | cAMP Emax [2] | EC50 ([2]; agonist, reversal of forskolin-stimulated cAMP in transfected CHO cells)
O=C(N[C@@H](Cc1ccccc1)CN1CCN(c2nsnc2Cl)CC1)C1CCCCC1.O=C(O)/C=C/C(=O)O [Compound 4, Cyclohexanecarboxylic acid {(1S)-1-benzyl-2-(4-(4-chloro[1,2,5}thiadiazol-3-yl)piperazin-1-yl]ethyl}amide fumarate] | – | 0.84 nM | 93.00% | 4.61 nM
O=C(N[C@@H](Cc1ccccc1)CN1CCN(c2nsnc2Cl)CC1)c1ccncc1 [Compound 5] | – | 425 nM | – | –
CN(C(=O)C1CCCCC1)[C@H](Cc1ccccc1)CN1CCN(c2nsnc2Cl)CC1 [Compound 7] | 49.3 nM | 4.55 nM | 0.00% | –
COc1nsnc1N1CCN(CC(Cc2ccccc2)N(C)C(=O)c2ccccc2)CC1 (centres unmarked) [Compound 9, N-{1-Benzyl-2-[4-(4-methoxy-[1,2,5]thiadiazol-3-yl)piperazin-1-yl]ethyl]-N-methylbenzamide] | – | 9.87 nM | – | –

Second part, led by results:

IC50 [2] | Compound | Ki [1] | cAMP Emax [2] | EC50 ([2]; agonist, reversal of forskolin-stimulated cAMP in transfected CHO cells)
72.7 nM | COc1nsnc1N1CCN(C[C@@H](Cc2ccccc2)N(C)C(=O)C2CCCCC2)CC1 [Compound 8, Cyclohexanecarboxylic acid {(1R)-1-benzyl-2-[4-(4-methoxy-[1,2,5]thiadiazol-3-yl)-piperazine-1-yl]ethyl}methyl amide] | 1.55 nM | 0.00% | –
113 nM | COc1nsnc1N1CCN(C[C@@H](Cc2cccnc2)NC(=O)C2(C)CCCCC2)CC1 [Compound 11, 1-Methylcyclohexanecarboxylic acid {(1R)-2-[4-(4-methoxy-[1,2,5]thiadiazol-3-yl)-piperazin-1-yl]-1-pyridin-3-ylmethylethyl} amide] | 3.04 nM | 0.000% | –
